Assay results taken from patent US9199962B2, “Substituted azaheterocycles for the treatment of cancer” (Merck Patent GmbH, priority 2011, dated 2015).

The molecules below were run against T1, GST-FAK (N-terminal GST fusion with truncated human FAK (376-1052 (end) amino acids)) (Homo sapiens, UniProt Q05397) (assay: Biochemical enzyme assay for FAK activity (Caliper LC3000 mobility shift)). Settings: Table 5; 100 uM ATP; read-out: FAK IC50.
T1 construct: truncated human FAK (376-1052 (end) amino acids)
T1 sequence (Q05397 376-1052): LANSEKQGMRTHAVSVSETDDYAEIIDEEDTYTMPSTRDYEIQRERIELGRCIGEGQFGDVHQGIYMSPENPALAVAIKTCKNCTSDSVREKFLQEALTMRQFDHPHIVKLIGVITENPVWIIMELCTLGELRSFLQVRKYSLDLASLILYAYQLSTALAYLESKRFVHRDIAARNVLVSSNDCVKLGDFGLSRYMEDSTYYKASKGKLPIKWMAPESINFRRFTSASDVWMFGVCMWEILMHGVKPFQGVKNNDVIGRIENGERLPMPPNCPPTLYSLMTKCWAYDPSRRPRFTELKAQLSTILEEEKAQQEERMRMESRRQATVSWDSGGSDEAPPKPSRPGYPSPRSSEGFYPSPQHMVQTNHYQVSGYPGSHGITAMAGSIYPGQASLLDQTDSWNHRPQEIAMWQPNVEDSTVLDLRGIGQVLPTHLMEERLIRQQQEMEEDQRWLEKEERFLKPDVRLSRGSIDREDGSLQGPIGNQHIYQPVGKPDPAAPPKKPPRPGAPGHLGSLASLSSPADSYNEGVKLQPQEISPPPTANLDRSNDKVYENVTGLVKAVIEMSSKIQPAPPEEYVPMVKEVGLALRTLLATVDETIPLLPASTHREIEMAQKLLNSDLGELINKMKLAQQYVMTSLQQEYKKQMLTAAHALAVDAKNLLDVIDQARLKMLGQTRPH
Outline: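 Inhibitor dose series in DMSO were incubated 90 min at 25 °C with truncated GST-tagged human FAK (0.067 ng/µl) and FITC-labelled peptide substrate (1 µM), with ATP at 100 µM and FERM peptide at 1 mM (pH 7.5 HEPES). After EDTA quench, phosphorylated and unphosphorylated peptides were resolved electrophoretically. Percent conversion was fitted for IC50.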
In the case of `CS(=O)(=O)Nc1cccc(-c2nc(NCc3ccc(F)cc3F)c3nc[nH]c3n2)c1` [Compound 236, N-{3-[6-(2,4-Difluoro-benzylamino)-9H-purin-2-yl]-phenyl}-methanesulfonamide], the IC50 is reported as over 10000 nM.
With `Fc1ccc(CNc2nc(-c3cncc(C(F)(F)F)c3)nc3[nH]cnc23)c(F)c1` [Compound 237, (2,4-Difluoro-benzyl)-[2-(5-trifluoromethyl-pyridin-3-yl)-9H-purin-6-yl]-amine] the IC50 was 100 to 1000 nM.
For `FC(F)(F)c1cncc(-c2nccc(NCc3cccnc3)n2)c1` [Compound 238, Pyridin-3-ylmethyl-[2-(5-trifluoromethyl-pyridin-3-yl)-pyrimidin-4-yl]-amine], the IC50 was 100 to 1000 nM.
Work on `FC(F)(F)c1cncc(-c2nccc(Nc3cn[nH]c3)n2)c1` [Compound 239, (1H-Pyrazol-4-yl)-[2-(5-trifluoromethyl-pyridin-3-yl)-pyrimidin-4-yl]-amine] yielded an IC50 of 1000 to 10000 nM.
Molecule `Fc1ccc(CNc2ccnc(-c3cccc(C(F)(F)F)c3)n2)c(F)c1` [Compound 240, (2,4-Difluoro-benzyl)-[2-(3-trifluoromethyl-phenyl)-pyrimidin-4-yl]-amine] has an IC50 of over 10000 nM.
Work on `CS(=O)(=O)Nc1cccc(-c2nccc(NCc3ccc(F)cc3F)n2)c1` [Compound 241, N-{3-[4-(2,4-Difluoro-benzylamino)-pyrimidin-2-yl]-phenyl}-methanesulfonamide] yielded an IC50 of over 10000 nM.
With `CS(=O)(=O)Nc1cccc(-c2nc(NCc3ccc(F)cc3F)c3ncn(C4CCCCO4)c3n2)c1` (stereo not drawn) [Compound 242, N-{3-[6-(2,4-Difluoro-benzylamino)-9-(tetrahydro-pyran-2-yl)-9H-purin-2-yl]-phenyl}-methanesulfonamide] the IC50 was over 10000 nM.
With `Fc1ccc(CNc2nc(-c3cncc(C(F)(F)F)c3)nc3c2ncn3C2CCCCO2)c(F)c1` (stereo not drawn) [Compound 243, (2,4-Difluoro-benzyl)-[9-(tetrahydro-pyran-2-yl)-2-(5-trifluoromethyl-pyridin-3-yl)-9H-purin-6-yl]-amine] the IC50 was 100 to 1000 nM.
Molecule `Fc1cc(Cl)ccc1CNc1nccc(-c2cncc(C(F)(F)F)c2)n1` [Compound 244, (4-Chloro-2-fluoro-benzyl)-[4-(5-trifluoromethyl-pyridin-3-yl)-pyrimidin-2-yl]-amine] has an IC50 of 100 to 1000 nM.
With `CS(=O)(=O)Nc1cccc(-c2nccc(NCc3ccc(F)cc3C(F)(F)F)n2)c1` [Compound 245, N-{3-[4-(4-Fluoro-2-trifluoromethyl-benzylamino)-pyrimidin-2-yl]-phenyl}-methanesulfonamide] the IC50 was over 10000 nM.
Molecule `Cn1cc(NC(=O)c2cc(NCc3ccc(F)cc3F)nc(-c3cncc(C(F)(F)F)c3)n2)cn1` [Compound 246, 6-(2,4-Difluoro-benzylamino)-2-(5-trifluoromethyl-pyridin-3-yl)-pyrimidine-4-carboxylic acid (1-methyl-1H-pyrazol-4-yl)-amide] has an IC50 of 100 to 1000 nM.
In the case of `Fc1ccc(CNc2nccc(-c3cncc(C(F)(F)F)c3)n2)c(C(F)(F)F)c1` [Compound 247, (4-Fluoro-2-trifluoromethyl-benzyl)-[4-(5-trifluoromethyl-pyridin-3-yl)-pyrimidin-2-yl]-amine], the IC50 is reported as under 100 nM.
With `Fc1ccc(CNc2nccc(-c3cncc(C(F)(F)F)c3)n2)c(F)c1` [Compound 248, (2,4-Difluoro-benzyl)-[4-(5-trifluoromethyl-pyridin-3-yl)-pyrimidin-2-yl]-amine] the IC50 was under 100 nM.
With `CS(=O)(=O)N1CCOC(CNc2ccnc(-c3cncc(C(F)(F)F)c3)n2)C1` (stereo not drawn) [Compound 249, (4-Methanesulfonyl-morpholin-2-ylmethyl)-[2-(5-trifluoromethyl-pyridin-3-yl)-pyrimidin-4-yl]-amine] the IC50 was 1000 to 10000 nM.
In the case of `CCOC(=O)c1ccccc1Nc1ccnc(-c2cncc(C(F)(F)F)c2)n1` [Compound 250, 2-[2-(5-Trifluoromethyl-pyridin-3-yl)-pyrimidin-4-ylamino]-benzoic acid ethyl ester], the IC50 is reported as over 10000 nM.
